Assay results taken from patent US8222244B2, “Staurosporine derivatives as inhibitors of FLT3 receptor tyrosine kinase activity” (Novartis AG, priority 2001, dated 2012).
“Also recorded” adds a separate entry of the source.

Columns and labels:
Ba/F3-FLT3-D835Y cells = conditions: in 24-72 hours
Procedure: (§1) To search for FLT3-targeted compounds, the applicant screened the inhibitory effects of several compounds on two different kinds of assays. • Tyrosine protein kinase assays with purified GST-Flt-3 were carried in a final volume of 30 μL containing 200-1800 ng of enzyme protein. The activity was assayed in the presence or absence of inhibitors, by measuring the incorporation of ^33P from [γ^33P] ATP into appropriate substrates. […] Cell lines expressing two different forms of mutated, activated FLT3 are used: Ba/F3-FLT3-ITD cells expressing a FLT3 mutant with an “Internal Tandem Duplication” (ITD) within the juxtamembrane domain of the receptor. Ba/F3-FLT3-D835Y cells expressing an FLT3 receptor containing a mutation converting […] at position 835 to Tyrosine.
(§2) A cell based assay is utilised to identify inhibitors of mutant FLT3 tyrosine kinase receptors.
(§3) The cell lines used for the initial screening are sublines of Ba/F3 cells that are engineered to express mutant or over-express wild-type (non-mutated) FLT3 following infection with a retrovirus expressing appropriate FLT3 cDNAs. The parent cell line, Ba/F3 is dependent on interleukin-3 for proliferation, and when deprived of IL-3, the cells rapidly cease proliferation and die. The retrovirus expresses FLT3 from the retrovirual LTR and the neo gene from an IRES site.

Ba/F3-FLT3-ITD cells = conditions: in 24-72 hours
Procedure: as §1, §2, §3

[1] = test system: human leukemia and lymphoma cell lines that did not have mutant FLT3 receptors; experiment: Cytotoxicity against leukemia and lymphoma cell lines without mutant FLT3 receptors; format: cell-based; conditions: at the concentrations required to inhibit the proliferation of FLT3-dependent cell-lines

**Q.** For `CO[C@@H]1[C@H](N(C)C(=O)c2ccccc2)C[C@H]2O[C@]1(C)n1c3ccccc3c3c4c(c5c6ccccc6n2c5c31)C(=O)NC4` [MIDOSTAURIN, N-[(9S,10R,11R,13R)-2,3,10,11,12,13-hexahydro-10-methoxy-9-methyl-1-oxo-9,13-epoxy-1H,9H-diindolo[1,2,3-gh:3′,2′,1′-Im]pyrrolo[3,4-j][1,7]benzodiazonin-11-yl]-N-methylbenzamide], which “G1 cell cycle arrest and apoptosis” value (Ba/F3-FLT3-D835Y cells) is on record?
**A.** induced both G1 cell cycle arrest and apoptosis

**Q.** What about the “G1 cell cycle arrest and apoptosis” value (Ba/F3-FLT3-ITD cells) of the same molecule?
**A.** induced both G1 cell cycle arrest and apoptosis

**Q.** What about the cytotoxicity [1] of the same molecule?
**A.** not cytotoxic; also recorded: not cytoxic
